Source: US20160222432A1, “TEST STRIP USING FORMALDEHYDE OR PEROXIDE, FROM AMONG SARCOSINE METABOLITES, FOR DIAGNOSING PROSTATE CANCER, AND METHOD FOR DIAGNOSING PROSTATE CANCER USING SAME” (CSQUARE CO., LTD, priority 2013, published 2016)

Test system: sarcosine oxidase
Assay: Influence of metal ions (metal chloride salts) on sarcosine oxidase activity
Type: biochemical
Conditions: sarcosine oxidase activity with metal chloride salt, final concentration 2 mM, None = 100
Procedure: As shown in the following Table 1, activity of the sarcosine oxidase was greatly influenced by metal ions. Since metal ions were inevitably contained in the sample, EDTA was added at 0.01 to 0.02 g/dL to chelate the metal ions and to prevent activity of the sarcosine oxidase from decreasing due to the metal ions. In this case, when an amount of EDTA added was small, the metal ions were not sufficiently removed. […] In the present example, EDTA4NA was used. However, another substance that can chelate the metal ions could be used. Then, AHMT serving as a chromogen was dissolved at 20 to 50 mM. In this case, when an amount of the reagent added was small, there was no difference in color development between specimens of an intermediate concentration and a high concentration. On the other hand, when an amount of the reagent added was large, discoloration was caused in a natural state, which caused a change in a product or a false positive result.
As shown in the following Table 2, activity of the sarcosine oxidase is greatly influenced by metal ions. When an excessive amount of metal ions was contained in the sample, EDTA was added at 0.01 to 0.02 g/dL in order to chelate and remove the metal ions and prevent activity of the sarcosine oxidase from decreasing due to the metal ions. That is, EDTA serves as a metal adsorber and facilitates activation of the enzymes. In the present example, EDTA4NA was used. However, another substance that can chelate the metal ions could be used. When an amount of EDTA added was small, the metal ions were not sufficiently removed.

Row | Structure (SMILES) | Relative activity (%) (Table 1 (first example)) | Relative activity (%) (Table 2 (second example))
1 | [Cl][Cd][Cl] [Cd^2+] | 7 | 7
2 | [Cl-].[Cl-].[Co+2] [Co^2+] | 52 | 52
3 | [Cl][Cu][Cl] [Cu^2+] | 0 | 0
4 | [Cl][Fe][Cl] [Fe^2+] | 66 | 66
5 | [Cl][Hg][Cl] [Hg^2+] | 0 | 0
6 | [Cl][Mn][Cl] [Mn^2+] | 63 | 63
7 | [Cl][Ni][Cl] [Ni^2+] | 76 | 76
8 | [Cl-].[Cl-].[Zn+2] [Zn^2+] | 7 | 7
